Results published in patent US7618967B2, “Indane compounds” (H. Lundbeck A/S, priority 2006, dated 2009).

Target: NAT Noradrenergic Transporter (Rattus norvegicus, UniProt Q9WTR4)
Assay: Measurements of [3H]noradrenaline uptake into rat cortical synaptosomes
Assay type: biochemical
Procedure: Transporter Inhibition Assays
Measurements of [^3H]Noradrenaline Uptake into Rat Cortical Synaptosomes
The homogenate is centrifuged at 1000×g for 10 min at 4° C. The pellet is discarded and the supernatant is centrifuged at 40.000×g for 20 min. […] Pellet is suspended in 140 volumes of assaybuffer. Tissue is mixed with test compounds and after 10 min pre-incubation, 10 nM [^3H]-noradrenaline is added to a final volume of 0.2 ml and the mixture is incubated for 15 min at 37° C. After 15 min incubation, samples are filtered directly on Unifilter GF/C glass fiber filters (soaked for 30 min in 0.1% polyethylenimine) under vacuum and immediately washed with 1×0.2 mL assay buffer.
Non-specific uptake is determined using talsupram (10 μM final concentration). Duloxetine is included as reference in all experiments as dose-response curve.

NAT Noradrenergic Transporter, sequence (Q9WTR4 6-550 limits assumed): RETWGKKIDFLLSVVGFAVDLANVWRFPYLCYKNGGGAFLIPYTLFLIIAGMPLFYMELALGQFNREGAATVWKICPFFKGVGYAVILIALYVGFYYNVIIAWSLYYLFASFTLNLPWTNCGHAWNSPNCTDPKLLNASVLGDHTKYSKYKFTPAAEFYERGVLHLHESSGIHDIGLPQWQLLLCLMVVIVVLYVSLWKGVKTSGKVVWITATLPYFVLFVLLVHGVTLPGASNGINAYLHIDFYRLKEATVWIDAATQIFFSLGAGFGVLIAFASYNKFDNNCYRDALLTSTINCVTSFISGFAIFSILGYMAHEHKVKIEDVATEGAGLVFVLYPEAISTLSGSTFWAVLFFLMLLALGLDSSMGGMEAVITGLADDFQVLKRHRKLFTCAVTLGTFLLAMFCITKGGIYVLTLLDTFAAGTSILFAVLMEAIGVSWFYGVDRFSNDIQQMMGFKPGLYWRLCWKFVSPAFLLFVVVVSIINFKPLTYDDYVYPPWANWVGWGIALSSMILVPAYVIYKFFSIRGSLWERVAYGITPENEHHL

IC50	SMILES
0.1 to 200 nM	CN[C@@H]1C[C@@H](c2c[nH]c3ccccc23)c2ccccc21 [Formula IX]
0.1 to 200 nM	CN[C@@H]1C[C@@H](c2c[nH]c3ccc(Cl)cc23)c2ccccc21 [Formula VIII]
0.1 to 200 nM	CN[C@@H]1C[C@@H](c2c[nH]c3cc(OC)ccc23)c2ccccc21 [Formula X]
